{"source": "PubChem BioAssay (NCI)", "test_in_all_cases": "growth of human tumour cells (NCI), 48 h", "key": {"[1]": {"system": "786-0 renal"}, "[2]": {"system": "A549 NSCLC"}, "[3]": {"system": "ACHN renal"}, "[4]": {"system": "BT-549 breast"}, "[5]": {"system": "CAKI-1 renal"}, "[6]": {"system": "CCRF-CEM leukemia"}, "[7]": {"system": "COLO 205 colon"}, "[8]": {"system": "EKVX NSCLC"}, "[9]": {"system": "HCC-2998 colon"}, "[10]": {"system": "HCT-116 colon"}, "[11]": {"system": "HCT-15 colon"}, "[12]": {"system": "HL-60(TB) leukemia"}, "[13]": {"system": "HOP-62 NSCLC"}, "[14]": {"system": "HOP-92 NSCLC"}, "[15]": {"system": "HS 578T breast"}, "[16]": {"system": "HT29 colon"}, "[17]": {"system": "IGROV1 ovarian"}, "[18]": {"system": "K-562 leukemia"}, "[19]": {"system": "KM12 colon"}, "[20]": {"system": "LOX IMVI melanoma"}, "[21]": {"system": "M14 melanoma"}, "[22]": {"system": "MCF7 breast"}, "[23]": {"system": "MDA-MB-231 breast"}, "[24]": {"system": "MDA-MB-435"}, "[25]": {"system": "NCI-H226 lung"}, "[26]": {"system": "NCI-H23 lung"}, "[27]": {"system": "NCI-H460 lung"}, "[28]": {"system": "NCI-H522 lung"}, "[29]": {"system": "NCI/ADR-RES ovarian"}, "[30]": {"system": "OVCAR-3 ovarian"}, "[31]": {"system": "OVCAR-5 ovarian"}, "[32]": {"system": "OVCAR-8 ovarian"}, "[33]": {"system": "PC-3 prostate"}, "[34]": {"system": "RXF 393 renal"}, "[35]": {"system": "SF-268 CNS"}, "[36]": {"system": "SF-295 CNS"}, "[37]": {"system": "SK-MEL-2 melanoma"}, "[38]": {"system": "SK-MEL-28 melanoma"}, "[39]": {"system": "SK-MEL-5 melanoma"}, "[40]": {"system": "SN12C renal"}, "[41]": {"system": "SNB-19 CNS"}, "[42]": {"system": "SW-620 colon"}, "[43]": {"system": "T-47D breast"}, "[44]": {"system": "TK-10 renal"}, "[45]": {"system": "U251 CNS"}, "[46]": {"system": "UACC-257 melanoma"}, "[47]": {"system": "UACC-62 melanoma"}, "[48]": {"system": "UO-31 renal"}}, "note": "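Five compound concentrations were applied to cells in 96-well plates for 48 hours; endpoints were derived by simple linear interpolation of the resulting dose-response curve. GI50 is the concentration that inhibits growth by half. TGI denotes the concentration required for complete inhibition of growth.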", "data": [{"smiles": "O=C(NNC(=O)C1CCN(S(=O)(=O)c2ccc(-c3ccccc3)cc2)CC1)c1ccc(C(F)(F)F)cc1", "values": [{"measurement": "GI50", "setting": "[1]", "value": 7.21, "unit": "µM"}, {"measurement": "TGI", "setting": "[1]", "value": 34.1, "unit": "µM"}, {"measurement": "GI50", "setting": "[2]", "value": "> 50", "unit": "µM"}, {"measurement": "TGI", "setting": "[2]", "value": "> 50", "unit": "µM"}, {"measurement": "GI50", "setting": "[3]", "value": "> 50", "unit": "µM"}, {"measurement": "TGI", "setting": "[3]", "value": "> 50", "unit": "µM"}, {"measurement": "GI50", "setting": "[4]", "value": 44.1, "unit": "µM"}, {"measurement": "TGI", "setting": "[4]", "value": "> 50", "unit": "µM"}, {"measurement": "GI50", "setting": "[5]", "value": "> 50", "unit": "µM"}, {"measurement": "TGI", "setting": "[5]", "value": "> 50", "unit": "µM"}, {"measurement": "GI50", "setting": "[6]", "value": "> 50", "unit": "µM"}, {"measurement": "TGI", "setting": "[6]", "value": "> 50", "unit": "µM"}, {"measurement": "GI50", "setting": "[7]", "value": "> 50", "unit": "µM"}, {"measurement": "TGI", "setting": "[7]", "value": "> 50", "unit": "µM"}, {"measurement": "GI50", "setting": "[8]", "value": "> 50", "unit": "µM"}, {"measurement": "TGI", "setting": "[8]", "value": "> 50", "unit": "µM"}, {"measurement": "GI50", "setting": "[9]", "value": 20.6, "unit": "µM"}, {"measurement": "TGI", "setting": "[9]", "value": "> 50", "unit": "µM"}, {"measurement": "GI50", "setting": "[10]", "value": 4.77, "unit": "µM"}, {"measurement": "TGI", "setting": "[10]", "value": 13.2, "unit": "µM"}, {"measurement": "GI50", "setting": "[11]", "value": "> 50", "unit": "µM"}, {"measurement": "TGI", "setting": "[11]", "value": "> 50", "unit": "µM"}, {"measurement": "GI50", "setting": "[12]", "value": "> 50", "unit": "µM"}, {"measurement": "TGI", "setting": "[12]", "value": "> 50", "unit": "µM"}, {"measurement": "GI50", "setting": "[13]", "value": 5.46, "unit": "µM"}, {"measurement": "TGI", "setting": "[13]", "value": 16.5, "unit": "µM"}, {"measurement": "GI50", "setting": "[14]", "value": 2.89, "unit": "µM"}, {"measurement": "TGI", "setting": "[14]", "value": "> 50", "unit": "µM"}, {"measurement": "GI50", "setting": "[15]", "value": 38.3, "unit": "µM"}, {"measurement": "TGI", "setting": "[15]", "value": "> 50", "unit": "µM"}, {"measurement": "GI50", "setting": "[16]", "value": "> 50", "unit": "µM"}, {"measurement": "TGI", "setting": "[16]", "value": "> 50", "unit": "µM"}, {"measurement": "GI50", "setting": "[17]", "value": "> 50", "unit": "µM"}, {"measurement": "TGI", "setting": "[17]", "value": "> 50", "unit": "µM"}, {"measurement": "GI50", "setting": "[18]", "value": "> 50", "unit": "µM"}, {"measurement": "TGI", "setting": "[18]", "value": "> 50", "unit": "µM"}, {"measurement": "GI50", "setting": "[19]", "value": "> 50", "unit": "µM"}, {"measurement": "TGI", "setting": "[19]", "value": "> 50", "unit": "µM"}, {"measurement": "GI50", "setting": "[20]", "value": "> 50", "unit": "µM"}, {"measurement": "TGI", "setting": "[20]", "value": "> 50", "unit": "µM"}, {"measurement": "GI50", "setting": "[21]", "value": 15.9, "unit": "µM"}, {"measurement": "TGI", "setting": "[21]", "value": "> 50", "unit": "µM"}, {"measurement": "GI50", "setting": "[22]", "value": "> 50", "unit": "µM"}, {"measurement": "TGI", "setting": "[22]", "value": "> 50", "unit": "µM"}, {"measurement": "GI50", "setting": "[23]", "value": 1.58, "unit": "µM"}, {"measurement": "TGI", "setting": "[23]", "value": 34.9, "unit": "µM"}, {"measurement": "GI50", "setting": "[24]", "value": "> 50", "unit": "µM"}, {"measurement": "TGI", "setting": "[24]", "value": "> 50", "unit": "µM"}, {"measurement": "GI50", "setting": "[25]", "value": 14.6, "unit": "µM"}, {"measurement": "TGI", "setting": "[25]", "value": "> 50", "unit": "µM"}, {"measurement": "GI50", "setting": "[26]", "value": 14.1, "unit": "µM"}, {"measurement": "TGI", "setting": "[26]", "value": "> 50", "unit": "µM"}, {"measurement": "GI50", "setting": "[27]", "value": "> 50", "unit": "µM"}, {"measurement": "TGI", "setting": "[27]", "value": "> 50", "unit": "µM"}, {"measurement": "GI50", "setting": "[28]", "value": "> 50", "unit": "µM"}, {"measurement": "TGI", "setting": "[28]", "value": "> 50", "unit": "µM"}, {"measurement": "GI50", "setting": "[29]", "value": "> 50", "unit": "µM"}, {"measurement": "TGI", "setting": "[29]", "value": "> 50", "unit": "µM"}, {"measurement": "GI50", "setting": "[30]", "value": "> 50", "unit": "µM"}, {"measurement": "TGI", "setting": "[30]", "value": "> 50", "unit": "µM"}, {"measurement": "GI50", "setting": "[31]", "value": "> 50", "unit": "µM"}, {"measurement": "TGI", "setting": "[31]", "value": "> 50", "unit": "µM"}, {"measurement": "GI50", "setting": "[32]", "value": 22, "unit": "µM"}, {"measurement": "TGI", "setting": "[32]", "value": "> 50", "unit": "µM"}, {"measurement": "GI50", "setting": "[33]", "value": "> 50", "unit": "µM"}, {"measurement": "TGI", "setting": "[33]", "value": "> 50", "unit": "µM"}, {"measurement": "GI50", "setting": "[34]", "value": 20.3, "unit": "µM"}, {"measurement": "TGI", "setting": "[34]", "value": "> 50", "unit": "µM"}, {"measurement": "GI50", "setting": "[35]", "value": "> 50", "unit": "µM"}, {"measurement": "TGI", "setting": "[35]", "value": "> 50", "unit": "µM"}, {"measurement": "GI50", "setting": "[36]", "value": "> 50", "unit": "µM"}, {"measurement": "TGI", "setting": "[36]", "value": "> 50", "unit": "µM"}, {"measurement": "GI50", "setting": "[37]", "value": "> 50", "unit": "µM"}, {"measurement": "TGI", "setting": "[37]", "value": "> 50", "unit": "µM"}, {"measurement": "GI50", "setting": "[38]", "value": "> 50", "unit": "µM"}, {"measurement": "TGI", "setting": "[38]", "value": "> 50", "unit": "µM"}, {"measurement": "GI50", "setting": "[39]", "value": "> 50", "unit": "µM"}, {"measurement": "TGI", "setting": "[39]", "value": "> 50", "unit": "µM"}, {"measurement": "GI50", "setting": "[40]", "value": 21.4, "unit": "µM"}, {"measurement": "TGI", "setting": "[40]", "value": "> 50", "unit": "µM"}, {"measurement": "GI50", "setting": "[41]", "value": 15.4, "unit": "µM"}, {"measurement": "TGI", "setting": "[41]", "value": "> 50", "unit": "µM"}, {"measurement": "GI50", "setting": "[42]", "value": "> 50", "unit": "µM"}, {"measurement": "TGI", "setting": "[42]", "value": "> 50", "unit": "µM"}, {"measurement": "GI50", "setting": "[43]", "value": 3.99, "unit": "µM"}, {"measurement": "TGI", "setting": "[43]", "value": "> 50", "unit": "µM"}, {"measurement": "GI50", "setting": "[44]", "value": 20.8, "unit": "µM"}, {"measurement": "TGI", "setting": "[44]", "value": "> 50", "unit": "µM"}, {"measurement": "GI50", "setting": "[45]", "value": 11.8, "unit": "µM"}, {"measurement": "TGI", "setting": "[45]", "value": "> 50", "unit": "µM"}, {"measurement": "GI50", "setting": "[46]", "value": "> 50", "unit": "µM"}, {"measurement": "TGI", "setting": "[46]", "value": "> 50", "unit": "µM"}, {"measurement": "GI50", "setting": "[47]", "value": "> 50", "unit": "µM"}, {"measurement": "TGI", "setting": "[47]", "value": "> 50", "unit": "µM"}, {"measurement": "GI50", "setting": "[48]", "value": "> 50", "unit": "µM"}, {"measurement": "TGI", "setting": "[48]", "value": "> 50", "unit": "µM"}]}]}
